Like-named read-outs stand apart in the source and are kept apart here. Marks after values point to notes of the source that are not given here.
Experiments:
[1] = Population average serum elimination rate and half-life (linear mixed model, one compartment, first-order); conditions: for half-life: serum, oral
Method: Serum PFAS concentrations were log-transformed. Time was calculated as the elapsed days between supply of clean bottled water and […] blood sampling. We assumed one compartment, first-order elimination kinetics. In this kinetic model, the body is considered as one homogeneous volume in which mixing is instantaneous and from which PFAS could be absorbed, transferred, and eliminated according to the rate of elimination that is proportional to the concentration of PFAS in the body. Two methods were used to estimate serum elimination rate constant (k) and half-life for each PFAS:
Briefly, in the linear mixed model In Cij=αi+tijβ+Xiβ′+εij, Cij is the serum concentration of PFAS for individual i at sampling round j; αi is the subject-specific intercept (random intercept); tij is the time; β is the average slope; Xi is a vector of fixed covariates for individual i; β′ stands for the fixed effect coefficients; and εij is the random error term. We modified the model by excluding the subject-specific slope (random slope) due to a failure to converge after inclusion, which may be due to the limited number of study subjects. The negative value of the average slope ( −β ) is the population average k, and average half-life is calculated as ln2/k .
In the linear mixed model, we included only age and sex as covariates. We based covariate selection on factors that could conceivably confound the PFAS half-life estimation. Working task, duration of employment, number of glasses of water per day, blood donation, and pregnancy before mitigation of PFAS exposure from drinking water can influence the initial serum levels but would not be expected to influence the PFAS half-life.
A sensitivity analysis was performed using the same linear mixed model but with Cij as the serum levels after subtracting general background levels (using the median levels obtained from the nonexposed reference population). If the serum PFAS levels after subtraction were lower than the half of the background levels, they were replaced with half of the background levels.

[2] = Background serum PFAS levels in reference population from Karlshamn; assay type: in vivo, human; conditions: reference group from Karlshamn without PFAS contamination in drinking water, N=58, sampled 2016
From the text: For comparison with Swedish general background PFAS serum levels, we referred to the PFAS levels observed in a reference population from Karlshamn, a municipality in southern Sweden without PFAS contamination in the municipal drinking water. In 2016, 226 individuals were sampled. Fifty-nine individuals were randomly selected for analyzing other short-chain PFAS than the legacy ones, using the same modified method as for the airport employees. Fifty-eight individuals within the same age range as the airport employees (i.e., >22 years of age ) were included in the comparison. For a detailed description of this population see Li et al. ([2018]).

[3] = cited from earlier work; for Estimated half-life (geometric mean): Chinese population, from renal clearance of single paired serum and urine samples, ref Zhang et al. 2013; for Average half-life: highly exposed general population from Ronneby, Sweden, 108 Swedes, 5 y follow-up, ref Li et al. 2019
Serum/water ratio = assay type: in vivo, human; conditions: median serum level of first samples (26 employees) divided by airport drinking-water level
Method: The ratio of serum and water concentration for each PFAS (serum/water ratio) was calculated based on median serum level in the first serum sample obtained from all 26 airport employees divided by the drinking-water concentration. This ratio is an indicator of PFAS accumulation in body.

[4] = PFAS levels in urine samples of airport employees, specific-gravity adjusted (LC/MS/MS); assay type: in vivo, human; conditions: for Specific gravity adjusted urine level, median (range): second to fifth samplings, 17 airport employees
Method: Only one employee provided a single urine sample. […] All employees provided written informed consent.
The samples were thawed 1–2 h, then mixed by vortex shaker and manual turning. […] For the urine samples, 50μL urine was mixed with 25μL of methanol and 25μL of a 50% acetonitrile solution containing isotopically labeled internal standards (see Table S1). Then samples were shaken vigorously for 30 min and centrifuged at 3,000×g for 10 min at room temperature.
Aliquots of 20μL of the sample were analyzed using LC/MS/MS. […] The analysis was performed in negative ion mode. The ion source temperature was at 350°C.
(§1) Urinary PFAS concentrations were specific-gravity adjusted. The ratio of urine and serum concentration for each PFAS (urine/serum ratio) at each sampling was calculated based on PFAS concentrations in paired serum and urine samples from 17 employees. Then the personal average urine/serum ratio was calculated using the mean value of repeated samplings for each employee.

[5] = Urine/serum ratio in paired samples; assay type: in vivo, human; conditions: for Personal average urine/serum ratio, median (range): mean of four paired samplings per subject, 17 airport employees
Method: as §1

[6] = population average, model with original serum levels, age and sex as covariates
[7] = population average, model with serum levels after subtraction of background exposure (sensitivity analysis)
[8] = 2nd sampling (October 2018), count 17
[9] = 3rd sampling (November, 2018), count 16
[10] = 4th sampling (December 2018), count 14
[11] = 5th sampling (January 2019), count 12

Compound | Constant elimination rate (95% CI) [1, 6] | Half-life (95% CI) [1, 6] | Constant elimination rate (95% CI) [1, 7] | Half-life (95% CI) [1, 7] | PFAS serum level, median (range) [2] | Serum/water ratio (Serum/water ratio) | Specific gravity adjusted urinary level, 25 percentile [4, 8] | Specific gravity adjusted urinary level, 75 percentile [4, 8] | Specific gravity adjusted urinary level, Max [4, 8] | Specific gravity adjusted urinary level, Median [4, 8] | Specific gravity adjusted urinary level, Min [4, 8] | Specific gravity adjusted urinary level, 25 percentile [4, 9] | Specific gravity adjusted urinary level, 75 percentile [4, 9] | Specific gravity adjusted urinary level, Max [4, 9] | Specific gravity adjusted urinary level, Median [4, 9] | Specific gravity adjusted urinary level, Min [4, 9] | Specific gravity adjusted urinary level, 25 percentile [4, 10] | Specific gravity adjusted urinary level, 75 percentile [4, 10] | Specific gravity adjusted urinary level, Max [4, 10] | Specific gravity adjusted urinary level, Median [4, 10] | also measured
O=S(=O)(O)C(F)(C(F)(F)F)C(F)(F)C(F)(F)C(F)(F)C(F)(F)C(F)(F)C(F)(F)F (stereo not drawn) [1m-PFOS, perfluoro-1-methylheptanesulfonate] | 0.55 (0.09, 1.01) yearly | 1.27 (0.69, 7.64) year | 0.75 (0.15, 1.36) yearly | 0.92 (0.51, 4.77) year | 0.18 ( <LOD –0.59) ng/mL |  |  |  |  |  |  |  |  |  |  |  |  |  |  |  | 
O=S(=O)(O)C(F)(F)C(F)(F)C(F)(F)C(F)(F)F [PFBS, perfluorobutane sulfonic acid] | 5.96 (4.65, 7.27) yearly | 0.12 (0.1, 0.15)^d year |  |  |  | 1.65 |  |  |  |  |  |  |  |  |  |  |  |  |  |  | Half-life (geometric mean) ([3]; occupationally exposed workers followed up to 180 d, ref Olsen et al. 2009): 25.8 days
O=C(O)C(F)(F)C(F)(F)C(F)(F)C(F)(F)C(F)(F)C(F)(F)F [PFHpA, perfluoroheptanoic acid] | 4.11 (3.13, 5.09) yearly |  |  |  |  | 4.74 | 0.02 ng/mL | 0.04 ng/mL | 0.05 ng/mL | 0.03 ng/mL | < LOD | 0.01 ng/mL | 0.03 ng/mL | 0.08 ng/mL | 0.02 ng/mL | < LOD | 0.01 ng/mL | 0.03 ng/mL | 0.06 ng/mL | 0.02 ng/mL | Estimated half-life (geometric mean) ([3]; older females plus males): 1.0 y; Estimated half-life (geometric mean) ([3]; young females): 0.82 y; First-order apparent elimination half-life (geometric mean) ([3]; whole blood, five ski wax technicians, 7 months follow-up, ref Russell et al. 2015a): 70 days; half-life ([1]; human, Average serum half-life, population average, linear mixed model with original serum levels, 17 airport employees after end of drinking-water exposure): 62 days; half-life ([1]; human, Half-life (95% CI), population average, model with original serum levels, age and sex as covariates): 62.1 days; Specific gravity adjusted urinary level, Min [4, 10]: < LOD; Specific gravity adjusted urinary level, 25 percentile [4, 11]: < LOD; Specific gravity adjusted urinary level, 75 percentile [4, 11]: 0.03 ng/mL; Specific gravity adjusted urinary level, Max [4, 11]: 0.06 ng/mL; Specific gravity adjusted urinary level, Median [4, 11]: 0.02 ng/mL; Specific gravity adjusted urinary level, Min [4, 11]: < LOD; Specific gravity adjusted urine level, median (range) [4]: 0.025 ( <LOD –0.080) ng/mL; Personal average urine/serum ratio, median (range) [5]: 0.086 (0.018–0.32)
O=S(=O)(O)C(F)(F)C(F)(F)C(F)(F)C(F)(F)C(F)(F)C(F)(F)C(F)(F)F [PFHpS, perfluoroheptane sulfonic acid] | 0.48 (0.11, 0.84) yearly | 1.46 (0.83, 6.25) year | 0.51 (0.12, 0.9) yearly | 1.35 (0.77, 5.71) year |  | 81.3 |  |  |  |  |  |  |  |  |  |  |  |  |  |  | Average half-life [3]: 4.7 y; Average half-life longer than that of the PFCA with same number of carbon atoms ([1]; PFHpS vs PFHpA, PFOS vs PFOA): ~1.3 y; Average serum half-life ([1]; population average, linear mixed model with original serum levels, 17 airport employees after end of drinking-water exposure): 1.46 y; Reduction of half-life estimation after subtraction of background levels ([1]; sensitivity analysis vs model with original serum levels): 8%
O=C(O)C(F)(F)C(F)(F)C(F)(F)C(F)(F)C(F)(F)F [PFHxA, perfluorohexanoic acid] |  | 1.63 (NA) year |  |  |  | 1.15 |  |  |  |  |  |  |  |  |  |  |  |  |  |  | Apparent elimination half-life ([3]; whole blood, seven ski wax technicians, ref Russell et al. 2013): 32 days
O=S(=O)(O)C(F)(F)C(F)(F)C(F)(F)C(F)(F)C(F)(F)F [PFPeS, perfluoropentane sulfonic acid] | 1.1 (0.68, 1.51) yearly | 0.63 (0.46, 1.01) year | 1.1 (0.68, 1.52) yearly | 0.63 (0.46, 1.01) year |  | 38.3 | 0.06 ng/mL | 0.08 ng/mL | 0.11 ng/mL | 0.07 ng/mL | 0.04 ng/mL | 0.05 ng/mL | 0.09 ng/mL | 0.12 ng/mL | 0.07 ng/mL | 0.02 ng/mL | 0.07 ng/mL | 0.08 ng/mL | 0.12 ng/mL | 0.08 ng/mL | Average half-life [3]: 1.0 y; Half-life shorter than L-PFOS ([1]; human, in vivo): 4 times; Specific gravity adjusted urinary level, Min [4, 10]: 0.03 ng/mL; Specific gravity adjusted urinary level, 25 percentile [4, 11]: 0.06 ng/mL; Specific gravity adjusted urinary level, 75 percentile [4, 11]: 0.08 ng/mL; Specific gravity adjusted urinary level, Max [4, 11]: 0.09 ng/mL; Specific gravity adjusted urinary level, Median [4, 11]: 0.07 ng/mL; Specific gravity adjusted urinary level, Min [4, 11]: 0.05 ng/mL; Specific gravity adjusted urine level, median (range) [4]: 0.072 (0.021–0.12) ng/mL; Urine/serum ratio higher than L-PFOS ([5]; in vivo): 10 times; Personal average urine/serum ratio, median (range) [5]: 0.0089 (0.0057–0.026)
Perfluoro-2/6-methylheptanesulfonate [2/6m-PFOS] | 0.66 (0.29, 1.04) yearly | 1.04 (0.67, 2.42) year | 0.95 (0.39, 1.5) yearly | 0.73 (0.46, 1.76) year | 0.46 ( <LOD –1.4) ng/mL |  | < LOD | < LOD | < LOD | < LOD | < LOD | < LOD | < LOD | 0.04 ng/mL | < LOD | < LOD | < LOD | < LOD | 1.60 ng/mL | < LOD | Specific gravity adjusted urinary level, Min [4, 10]: < LOD; Specific gravity adjusted urinary level, 25 percentile [4, 11]: < LOD; Specific gravity adjusted urinary level, 75 percentile [4, 11]: < LOD; Specific gravity adjusted urinary level, Max [4, 11]: 0.03 ng/mL; Specific gravity adjusted urinary level, Median [4, 11]: < LOD; Specific gravity adjusted urinary level, Min [4, 11]: < LOD; Personal average urine/serum ratio, median (range) [5]: 0.0051 (0.00059–0.032)
perfluoro-3/4/5-methylheptanesulfonate [3/4/5m-PFOS] | 0.64 (0.18, 1.1) yearly | 1.09 (0.63, 3.96) year | 0.83 (0.24, 1.42) yearly | 0.83 (0.49, 2.84) year | 0.79 (0.10–2.2) ng/mL |  |  |  |  |  |  |  |  |  |  |  |  |  |  |  | 
